Source: patent publication US7544479B2, “Method for identifying MLK inhibitors for treatment of neurological conditions” (priority 1998, dated 2009)

Key:
NMDA receptor = details: rats given glutamate, quinolinic acid or kainic acid; cited from earlier work
JNK = JNK activity in HN33 cell lysates (GST-c-Jun phosphorylation, Western blot); type: cell-based, rat; details: glutamate 250 μM or kainic acid 200 μM, room temperature, 15 minutes
HN33 cells [1] = details: for induction of apoptotic cell death of HN33 cells: glutamate 250 μM or kainic acid 200 μM
HN33 cells [2] = assay: TUNEL assay of apoptosis induced by expression of APP-C-100 in HN33 cells; type: cell-based, rat; details: 48 hours after transfection
From the text: To determine the role of activation of the SEK1-JNK signal transduction pathway in Alzheimer's diseases, a cDNA fragment encoding the full-length (Kang, J., et al., Nature, 325:733-736 (1987)) or the last C-terminal 100 amino acid of amyloid precursor protein (APP) was inserted into pcDNA1 and the resulting plasmid was designated as APP-C-100. HN33 cells (60% of confluence) was transfected with pcDNA1 (control), wild-type APP, APP-C-100 by using lipofectin (Boehringer Mannheim) according to manufacture instruction. Thirty μl of lipofectin/50 mm plate was used in all transfection experiments. Twelve to seventy-two hours after transfection, HN33 cells were fixed with 4% paraformaldehyde and permeabilized with 0.1% of Triton X-100. […] TUNEL negative cells were counted under light microscope.
To further determine the role of activation of the JNK activation in Alzheimer's diseases, HN33 cells were transfected with pcDNA1, wild-type APP expression vector, or mutant SEK1 expression vector using lipofectin (Boehringer Mannheim) according to manufacture instruction. […] TUNEL negative cells (living cells) were counted.
To determine further the role of activation of the MLK activation in Alzheimer's diseases, HN33 cells were co-transfected with pcDNA1, wild-type expression vector, with kinase dead MLK2 expression vector. […] TUNEL negative cells (living cells) were counted.

HN33 cells [3] = assay: TUNEL assay of apoptosis induced by expression of MLK2 in HN33 cells; type: cell-based, rat; details: co-transfection with wild-type MLK2; 48 hours after transfection
From the text: To examine whether expression of MLK2 induces neuronal cell death, HN33 cells were transfected with pRK5CMV, wild-type or kinase dead MLK2 expression vector using lipofectin (Boehringer Mannheim) according to manufacture instruction. Forty-eight hours after transfection, cells were fixed and stained with TUNEL, as described above. TUNEL negative cells (living cells) were counted.
To determine whether the role of the SEK1-JNK signal transduction pathway in neuronal cell death induced by expression of MLK2, HN33 cells were co-transfected with pEBG+pRK5CMV (control), wild-type SEK1 expression vector+wild-type MLK2 expression vector, or dominant negative mutant SEK1 (K54R) expression vector+wild-type MLK2 expression vector. Forty-eight hours after transfection, cells were fixed and stained with TUNEL. TUNEL negative cells (living cells) were counted.

C[C@]12N[C@H](Cc3ccccc31)c1ccccc12 [MK-801]
induction of c-Jun expression and neuronal apoptosis (NMDA receptor): blocked

N[C@@H](CCC(=O)O)C(=O)O [glutamate]
JNK activity (JNK): induced elevation of the JNK activity | induction of apoptotic cell death of HN33 cells (HN33 cells [1]): apoptotic cell death

C=C(C)[C@H]1CN[C@H](C(=O)O)[C@H]1CC(=O)O [kainic acid]
JNK activity (JNK): induced elevation of the JNK activity | induction of apoptotic cell death of HN33 cells (HN33 cells [1]): apoptotic cell death

B1: SEK1 (K54R): dominant negative mutant of SEK1, known to specifically block JNK activation; expressed from a vector (protein, UniProt P45985 2-399, looked up, variant K54R)
Dual specificity …: AAPSPSGGGGSGGGSGSGTPGPVGSPAPGHPAVSSMQGKRKALKLNFANPPFRSTARFTLNPNPTGVQNPHIERLRTHSIESSGKLKISPEQHWDFTAEDLKDLGEIGRGAYGSVNKMVHKPSGQIMAVKRIRSTVDEKEQKQLLMDLDVVMRSSDCPYIVQFYGALFREGDCWICMELMSTSFDKFYKYVYSVLDDVIPEEILGKITLATVKALNHLKENLKIIHRDIKPSNILLDRSGNIKLCDFGISGQLVDSIAKTRDAGCRPYMAPERIDPSASRQGYDVRSDVWSLGITLYELATGRFPYPKWNSVFDQLTQVVKGDPPQLSNSEEREFSPSFINFVNLCLTKDESKRPKYKELLKHPFILMYEERAVEVACYVCKILDQMPATPSSPMYVD
modifications: expressed from vector; dominant negative
apoptosis induced by expression of APP-C-100, effect of co-expression (HN33 cells [2]): blocks | apoptosis induced by glutamate or kainate receptor activation, effect of expression (HN33 cells [1]; 250 μM glutamate or 200 μM kainate for six hours, 48 hours after transfection): blocks | apoptosis induced by MLK expression, effect of co-expression (HN33 cells [3]): attenuated
